Source: patent publication US20230242530A1, “8-(AZETIDIN-1-YL)-[1,2,4]TRIAZOLO[1,5-A]PYRIDINYL COMPOUNDS, COMPOSITIONS AND METHODS OF USE THEREOF” (Genentech, Inc., priority 2016, published 2023)

What was measured:
[1] = molecular target: T1, isolated recombinant JAK1 kinase domain (Homo sapiens, UniProt P23458); experiment: JAK enzyme assay, JAK1 kinase domain (Caliper LabChip); type: biochemical; conditions: 1.5 nM JAK1, ATP 25 μM, Morrison tight binding model
T1 construct: isolated recombinant JAK1 and JAK2 kinase domain
Method in brief: (§1)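 Ki values were obtained by Morrison tight-binding analysis with ATP-competitive correction, Ki=Ki,app/(1+[ATP]/Km,app). Phosphorylated versus total fluorescent JAK3-derived peptide was quantified on a Caliper LabChip. Kinase reactions with the isolated recombinant domains ran 30 min at 22 °C before EDTA quench (50 mM final).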

[2] = molecular target: T2, isolated recombinant JAK2 kinase domain (Homo sapiens, UniProt O60674); experiment: JAK enzyme assay, JAK2 kinase domain (Caliper LabChip); type: biochemical; conditions: 0.2 nM JAK2, ATP 25 μM, Morrison tight binding model
T2 construct: isolated recombinant JAK1 and JAK2 kinase domain
Method in brief: as §1

[3] = test system: JAK1-dependent STAT6 phosphorylation downstream of IL-13 stimulation in BEAS-2B cells; experiment: JAK1 pathway assay in cell lines: IL-13 p-STAT6 BEAS-2B; type: cell-based; conditions: BEAS-2B human bronchial epithelial cells, 1 hr compound, IL-13 15 min, MSD readout
Method in brief: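 Phospho-STAT6 read by MSD electrochemiluminescence in lysates of BEAS-2B cells kept in complete growth medium. Cells were pretreated 1 hr at 37 °C with compound (0.2% DMSO final) and stimulated 15 min with IL-13 at its EC90; EC50 is the concentration halving signal versus DMSO.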

T2 sequence (O60674 849-1124 limits assumed): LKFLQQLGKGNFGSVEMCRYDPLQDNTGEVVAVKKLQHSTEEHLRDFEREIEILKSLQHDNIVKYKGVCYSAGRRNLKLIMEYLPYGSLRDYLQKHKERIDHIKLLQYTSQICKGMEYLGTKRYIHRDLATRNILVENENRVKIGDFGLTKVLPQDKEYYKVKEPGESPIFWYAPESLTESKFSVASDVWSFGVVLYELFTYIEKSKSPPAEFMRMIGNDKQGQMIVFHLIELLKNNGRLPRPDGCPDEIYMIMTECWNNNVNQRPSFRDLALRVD
T1 sequence (P23458 875-1153 limits assumed): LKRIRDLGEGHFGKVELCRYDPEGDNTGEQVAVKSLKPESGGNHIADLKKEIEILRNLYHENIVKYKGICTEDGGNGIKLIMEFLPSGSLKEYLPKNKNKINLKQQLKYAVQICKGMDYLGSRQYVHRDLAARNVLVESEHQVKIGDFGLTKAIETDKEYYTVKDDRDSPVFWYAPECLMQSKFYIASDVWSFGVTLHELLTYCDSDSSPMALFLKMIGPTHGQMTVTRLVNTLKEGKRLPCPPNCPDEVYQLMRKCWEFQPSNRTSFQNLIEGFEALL

Compound | Ki [1] | Ki [2] | EC50 [3]
CN(CC1(C#N)CC1)C1CCN(C(=O)Cn2cc(Nc3nc4c(N5CC(CC#N)(n6cc(C(F)(F)F)cn6)C5)cccn4n3)cn2)CC1 [Example 109, 1-[[[1-[2-[4-[[8-[3-(cyanomethyl)-3-[4-(trifluoromethyl)pyrazol-1-yl]azetidin-1-yl]-[1,2,4]triazolo[1,5-a]pyridin-2-yl]amino]pyrazol-1-yl]acetyl]-4-piperidyl]-methyl-amino]methyl]cyclopropane carbonitrile] | 0.5 nM | 0.4 nM | 58 nM
CN1CCN(C(=O)c2cccc(Nc3nc4c(N5CC(CC#N)(n6cc(C(F)(F)F)cn6)C5)cccn4n3)c2)CC1 [Example 110, formic acid;2-[1-[2-[3-(4-methylpiperazine-1-carbonyl)anilino]-[1,2,4]triazolo[1,5-a]pyridin-8-yl]-3-[4-(trifluoromethyl)pyrazol-1-yl]azetidin-3-yl]acetonitrile] | 0.8 nM | 0.9 nM | 100 nM
CN1CCN(C(=O)c2cc(Nc3nc4c(N5CC(CC#N)(n6cc(C(F)(F)F)cn6)C5)cccn4n3)ccn2)CC1 [Example 111, 2-[1-[2-[[2-(4-methylpiperazine-1-carbonyl)-4-pyridyl]amino]-[1,2,4]triazolo[1,5-a]pyridin-8-yl]-3-[4-(trifluoromethyl)pyrazol-1-yl]azetidin-3-yl]acetonitrile] | 0.7 nM | 0.4 nM | 39 nM
N#CCC1(n2cc(C(F)(F)F)cn2)CN(c2cccn3nc(Nc4cccc(C(=O)N5CCC(N6CCOCC6)CC5)c4)nc23)C1 [Example 112, formic acid;2-[1-[2-[3-(4-morpholinopiperidine-1-carbonyl)anilino]-[1,2,4]triazolo[1,5-a]pyridin-8-yl]-3-[4-(trifluoromethyl)pyrazol-1-yl]azetidin-3-yl]acetonitrile] | 1 nM | 4.6 nM | 69 nM
CN1CCN(C(=O)c2ccc(Nc3nc4c(N5CC(CC#N)(n6cc(C7CCOCC7)cn6)C5)cccn4n3)cc2)CC1 [Example 113, 2-[1-[2-[4-(4-methylpiperazine-1-carbonyl)anilino]-[1,2,4]triazolo[1,5-a]pyridin-8-yl]-3-(4-tetrahydropyran-4-ylpyrazol-1-yl)azetidin-3-yl]acetonitrile] | 0.4 nM | 0.6 nM | 43 nM
Cc1nn(C2(CC#N)CN(c3cccn4nc(Nc5cnn(CC(=O)N6CCN(C)CC6)c5)nc34)C2)cc1-c1ccccc1 [Example 114, formic acid;2-[3-(3-methyl-4-phenyl-pyrazol-1-yl)-1-[2-[[1-[2-(4-methylpiperazin-1-yl)-2-oxo-ethyl]pyrazol-4-yl]amino]-[1,2,4]triazolo[1,5-a]pyridin-8-yl]azetidin-3-yl]acetonitrile] | 0.3 nM | 0.3 nM | 16 nM
N#CCC1(n2cc(C(F)(F)F)cn2)CN(c2cccn3nc(Nc4ccc(CC(=O)N5CCN(C6COC6)CC5)cc4)nc23)C1 [Example 115, 2-[1-[2-[4-[2-[4-(oxetan-3-yl)piperazin-1-yl]-2-oxo-ethyl]anilino]-[1,2,4]triazolo[1,5-a]pyridin-8-yl]-3-[4-(trifluoromethyl)pyrazol-1-yl]azetidin-3-yl]acetonitrile] | 2.4 nM | 22.9 nM | 139 nM
CN1CCN(C(=O)Cc2ccc(Nc3nc4c(N5CC(CC#N)(n6cc(C(F)(F)F)cn6)C5)cccn4n3)cc2)CC1 [Example 116, formic acid;2-[1-[2-[4-[2-(4-methylpiperazin-1-yl)-2-oxo-ethyl]anilino]-[1,2,4]triazolo[1,5-a]pyridin-8-yl]-3-[4-(trifluoromethyl)pyrazol-1-yl]azetidin-3-yl]acetonitrile] | 0.6 nM | 4 nM | 90 nM
COc1ccc(CCC2(CC#N)CN(c3cccn4nc(Nc5cnn(CC(=O)N6CCN(C)CC6)c5)nc34)C2)cc1 [Example 117, 2-[3-[2-(4-methoxyphenyl)ethyl]-1-[2-[[1-[2-(4-methylpiperazin-1-yl)-2-oxo-ethyl]pyrazol-4-yl]amino]-[1,2,4]triazolo[1,5-a]pyridin-8-yl]azetidin-3-yl]acetonitrile] | 0.4 nM | 2.4 nM | 20 nM
Cc1ccccc1-c1cnn(C2(CC#N)CN(c3cccn4nc(Nc5cnn(CC(=O)N6CCC(NCC7(C#N)CC7)CC6)c5)nc34)C2)c1 [Example 118, 1-[[[1-[2-[4-[[8-[3-(cyanomethyl)-3-[4-(o-tolyl)pyrazol-1-yl]azetidin-1-yl]-[1,2,4]triazolo[1,5-a]pyridin-2-yl]amino]pyrazol-1-yl]acetyl]-4-piperidyl]amino]methyl]cycl opropanecarbonitrile] | 1.1 nM | 7.3 nM | 99 nM
CSc1cnn(C2(CC#N)CN(c3cccn4nc(Nc5cnn(CC(=O)N6CCN(C)CC6)c5)nc34)C2)c1 [Example 119] | 0.3 nM | 0.2 nM | 16 nM
Cc1nn(C2(CC#N)CN(c3cccn4nc(Nc5cnn(CC(=O)N6CCN(C)CC6)c5)nc34)C2)cc1C1CCCCC1 [Example 120, 2-[3-(4-cyclohexyl-3-methyl-pyrazol-1-yl)-1-[2-[[1-[2-(4-methylpiperazin-1-yl)-2-oxo-ethyl]pyrazol-4-yl]amino]-[1,2,4]triazolo[1,5-a]pyridin-8-yl]azetidin-3-yl]acetonitrile] | 0.8 nM | 6.1 nM | 46 nM
N#CCC1(n2cc(C(F)(F)F)cn2)CN(c2cccn3nc(Nc4ccc5c(c4)CCN(C4COC4)C5)nc23)C1 [Example 121, 2-[1-[2-[[2-(oxetan-3-yl)-3,4-dihydro-1H-isoquinolin-6-yl]amino]-[1,2,4]triazolo[1,5-a]pyridin-8-yl]-3-[4-(trifluoromethyl)pyrazol-1-yl]azetidin-3-yl]acetonitrile] | 0.5 nM | 4.4 nM | 31 nM
Cc1ccccc1-c1cnn(C2(CC#N)CN(c3cccn4nc(Nc5cnn(CC(=O)N6CCN(C7COC7)CC6)c5)nc34)C2)c1 [Example 122, formic acid;2-[3-[4-(o-tolyl)pyrazol-1-yl]-1-[2-[[1-[2-[4-(oxetan-3-yl)piperazin-1-yl]-2-oxo-ethyl]pyrazol-4-yl]amino]-[1,2,4]triazolo[1,5-a]pyridin-8-yl]azetidin-3-yl]acetonitrile] | 0.5 nM | 3.7 nM | 43 nM
Cc1ccccc1-c1cnn(C2(CC#N)CN(c3cccn4nc(Nc5cnn(CC(=O)N6CCC(N7CCOCC7)CC6)c5)nc34)C2)c1 [Example 123] | 0.3 nM | 1.3 nM | 87 nM
Cc1ccccc1-c1cnn(C2(CC#N)CN(c3cccn4nc(Nc5cnn(CC(=O)N6CCC(N(C)C7COC7)CC6)c5)nc34)C2)c1 [Example 124] | 2 nM | 3.8 nM | 85 nM
N#CCC1(n2cc(C(F)(F)F)cn2)CN(c2cccn3nc(Nc4cnn(CC(=O)N5CCN(CCO)CC5)c4)nc23)C1 [Example 125, formic acid;2-[1-[2-[[1-[2-[4-(2-hydroxyethyl)piperazin-1-yl]-2-oxo-ethyl]pyrazol-4-yl]amino]-[1,2,4]triazolo[1,5-a]pyridin-8-yl]-3-[4-(trifluoromethyl)pyrazol-1-yl]azetidin-3-yl]acetonitrile] | 0.4 nM | 0.4 nM | 21 nM
